Results: publication PMC8388771, “Cationic Peptidomimetic Amphiphiles Having a N-Aryl- or N-Naphthyl-1,2,3-Triazole Core Structure Targeting Clostridioides (Clostridium) difficile: Synthesis, Antibacterial Evaluation, and an In Vivo C. difficile Infection Model” (Antibiotics, 2021)
In brackets after ≈: the same amount, converted by molar mass. Like-named read-outs stand apart in the source and are kept apart here.

Tests used:
S. aureus ATCC 43300 = test: CO-ADD MIC assay, S. aureus ATCC 43300 (MRSA); type: cell-based; details: Staphylococcus aureus, MRSA, read-out: MIC S. aureus ATCC 43300
Text: (§1) The N-arytriazole and N-naphthyltriazole peptidomimetics were subjected to antimicrobial screening. […] Vancomycin, colistin, fluconazole, and tamoxifen were used as positive controls (see Table 1 for details).
(§2) Secondary screening (MRSA and Gram-negative bacteria) and cytotoxicity assay–performed by the Community for Open Antimicrobial Drug Discovery (CO-ADD). Samples were provided to CO-ADD [29] for antimicrobial screening by whole cell growth inhibition assays.
(§3) Bacterial Inhibition–MIC Assay. These were performed as described previously.

A. baumannii ATCC 19606 = test: CO-ADD MIC assay, A. baumannii ATCC 19606; type: cell-based; details: Acinetobacter baumannii, ATCC19606, Table S1
Text: as §1, §2, §3

S. pneumoniae ATCC 49619 = test: Primary MIC assay, S. pneumoniae ATCC 49619; type: cell-based, Streptococcus pneumoniae; details: Streptococcus pneumoniae, ATCC49619; Table 1; read-out: MIC S. pneumoniae ATCC 49619
Procedure: as §1
(§4) Primary screening (Gram-positive bacteria). Primary MIC assays were performed as described by the Clinical and Laboratory Standards Institute for aerobic and anaerobic bacteria. MIC values for vancomycin were within acceptable QC ranges.

S. aureus NCTC 10442 = test: Primary MIC assay, S. aureus NCTC 10442 (MRSA); type: cell-based; details: Staphylococcus aureus, MRSA
Procedure: as §1, §4

P. aeruginosa ATCC 27853 = test: CO-ADD MIC assay, P. aeruginosa ATCC 27853; type: cell-based; details: Pseudomonas aeruginosa, ATCC27853, Table S1
Text: as §1, §2, §3

[1] = Cytotoxicity (CC50) assay by CO-ADD; type: cell-based, human; details: human, HEK293 cells (ATCC CRL-1573); Table 1; cytotoxicity on HEK293 cells, tested at ≤32 µg/mL
Text: as §1, §2
Cytotoxicity Assay. These were performed as described previously.

C. difficile ATCC 700057 = test: Primary MIC assay, C. difficile ATCC 700057; type: cell-based, Clostridioides difficile; details: Clostridioides difficile, ATCC700057; Table 1; read-out: MIC C. difficile ATCC 700057
Procedure: as §1, §4

human erythrocytes = test: Hemolysis assay, HC50 determination; type: cell-based
Procedure: Hemolysis assay (human erythrocytes)–HC50 determination. These were performed as described previously.

S. aureus ATCC 29213 = test: Primary MIC assay, S. aureus ATCC 29213; type: cell-based; details: Staphylococcus aureus, ATCC29213; Table 1; read-out: MIC S. aureus ATCC 29213
Procedure: as §1, §4

E. coli ATCC 25922 [2] = test: Primary MIC assay, E. coli ATCC 25922; type: cell-based; details: Escherichia coli, ATCC25922; Table 1; read-out: MIC E. coli ATCC 25922
E. faecalis ATCC 29212 = test: Primary MIC assay, E. faecalis ATCC 29212; type: cell-based, Enterococcus faecalis; details: Enterococcus faecalis, ATCC29212; Table 1; read-out: MIC E. faecalis ATCC 29212
Procedure: as §1, §4

[3] = test system: Cryptococcus neoformans var. grubii ATCC 208821; test: CO-ADD MIC assay, C. neoformans var. grubii ATCC 208821; type: cell-based; details: for MIC: Cryptococcus neoformans, ATCC208821, Table S1; for MIC C. neoformans var. grubii ATCC 208821: Table S1
Text: as §1, §2

[4] = test system: K. pneumoniae ATCC 700603; test: CO-ADD MIC assay, K. pneumoniae ATCC 700603; type: cell-based; details: Klebsiella pneumoniae, ATCC700603, Table S1, multi-drug resistant
Text: as §1, §2, §3

C. difficile 132 (RT027) = test: Primary MIC assay, C. difficile 132 (RT027); type: cell-based, Clostridioides difficile; details: Clostridioides difficile; Table 1; read-out: MIC C. difficile 132 (RT027)
Procedure: as §1, §4

C. albicans ATCC 90028 = test: CO-ADD MIC assay, C. albicans ATCC 90028; type: cell-based; details: Candida albicans, ATCC90028, Table S1
Text: as §1, §2

E. coli ATCC 25922 [5] = test: CO-ADD MIC assay, E. coli ATCC 25922; type: cell-based; details: Escherichia coli, ATCC25922, Table S1
Text: as §1, §2, §3

[6] = Table 1, read-out: MIC S. aureus NCTC 10442
[7] = Table 1, lysis of human erythrocytes
[8] = Table S1, footnote says lysis of sheep erythrocytes

| SMILES | MIC (S. aureus ATCC 43300; Table S1, CO-ADD) [µg/mL] | MIC (A. baumannii ATCC 19606) [µg/mL] | MIC (S. pneumoniae ATCC 49619) [µg/mL] | MIC (S. aureus NCTC 10442; [6]) [µg/mL] | MIC (P. aeruginosa ATCC 27853) [µg/mL] | CC50 [1] [µg/mL] | MIC (C. difficile ATCC 700057) [µg/mL] | HC50 (human erythrocytes; [7]) [µg/mL] | HC50 (human erythrocytes; [8]) [µg/mL] | MIC (S. aureus ATCC 29213) [µg/mL] | MIC (E. coli ATCC 25922 [2]) [µg/mL] | MIC (E. faecalis ATCC 29212) [µg/mL] | MIC [3] [µg/mL] | MIC [4] [µg/mL] | MIC (C. difficile 132 (RT027)) [µg/mL] | MIC (C. albicans ATCC 90028) [µg/mL] | MIC (E. coli ATCC 25922 [5]) [µg/mL] | MIC C. neoformans var. grubii ATCC 208821 [3] [µg/mL] | further results |
| --- | --- | --- | --- | --- | --- | --- | --- | --- | --- | --- | --- | --- | --- | --- | --- | --- | --- | --- | --- |
| CC(C)CCc1cn(-c2c(OCC(=O)N[C@H](CCCNC(=N)N)Cn3cc(Cc4ccccc4)nn3)ccc3ccccc23)nn1.Cl [Compound 23] | 8 | > 32 | 4 | 4 | > 32 | > 32 | 32 | >32 | > 32 | 4 | 64 | 4 | 16 | > 32 | 32 | 32 | 32 | – | – |
| CC(C)CCc1cnnn1-c1c(OCC(=O)N[C@H](CCCNC(=N)N)Cn2cc(C3CCCCC3)nn2)ccc2ccccc12 [Compound 24] | 8 (≈ 13 µM) | 32 (≈ 52 µM) | 8 (≈ 13 µM) | 8 (≈ 13 µM) | 32 (≈ 52 µM) | 21.9 (≈ 35.6 µM) | 32 (≈ 52 µM) | >32 | > 32 | 8 (≈ 13 µM) | 32 (≈ 52 µM) | 8 (≈ 13 µM) | > 32 | > 32 | 32 (≈ 52 µM) | 32 (≈ 52 µM) | 32 (≈ 52 µM) | – | – |
| CC(C)CCc1cnnn1-c1c(OCC(=O)N[C@H](CCCNC(=N)N)Cn2cc(CC3CCCCC3)nn2)ccc2ccccc12.Cl [Compound 25] | 4 | 32 | 8 | 4 | > 32 | > 32 | 32 | 10.6 | 10.6 | 4 | 16 | 8 | 4 to 8 | > 32 | 64 | 16 | 32 | 8 | – |
| CC(C)CCc1cnnn1-c1c(OCC(=O)N[C@H](CCCNC(=N)N)Cn2cc(Cc3ccccc3)nn2)ccc2ccccc12.Cl [Compound 26] | 16 | > 32 | 4 | 8 | > 32 | 23.5 | 64 | >32 | > 32 | 8 | 64 | 16 | > 32 | > 32 | > 128 | 32 | > 32 | – | – |
| CC(C)CCc1cn(-c2ccccc2OCC(=O)N[C@H](CCCCN)C(=O)N[C@H](CCCNC(=N)N)Cn2cc(Cc3ccccc3)nn2)nn1 [Compound 36] | 16 (≈ 22.8 µM) | > 32 | 16 (≈ 22.8 µM) | 32 (≈ 45.7 µM) | > 32 | > 32 | 128 (≈ 183 µM) | >32 | > 32 | 32 (≈ 45.7 µM) | 128 (≈ 183 µM) | 64 (≈ 91.3 µM) | 32 (≈ 45.7 µM) | > 32 | 128 (≈ 183 µM) | 16 (≈ 22.8 µM) | > 32 | – | – |
| CC(C)CCc1cnnn1-c1ccccc1OCC(=O)N[C@H](CCCCN)C(=O)N[C@H](CCCNC(=N)N)Cn1cc(C2CCCCC2)nn1 [Compound 37] | 16 (≈ 23.1 µM) | > 32 | 8 (≈ 11.5 µM) | 32 (≈ 46.2 µM) | > 32 | > 32 | 64 (≈ 92.4 µM) | >32 | > 32 | 16 (≈ 23.1 µM) | 64 (≈ 92.4 µM) | 16 (≈ 23.1 µM) | 16 (≈ 23.1 µM) | > 32 | 64 (≈ 92.4 µM) | 16 (≈ 23.1 µM) | > 32 | – | – |
| CC(C)CCc1cnnn1-c1ccccc1OCC(=O)N[C@H](CCCCN)C(=O)N[C@H](CCCNC(=N)N)Cn1cc(CC2CCCCC2)nn1 [Compound 38] | 32 (≈ 45.3 µM) | > 32 | 128 (≈ 181 µM) | 128 (≈ 181 µM) | > 32 | 32 (≈ 45.3 µM) | 128 (≈ 181 µM) | 32 | 32 | 128 (≈ 181 µM) | > 128 | > 128 | 16 (≈ 22.6 µM) | > 32 | > 128 | > 32 | > 32 | – | – |
| CC(C)CCc1cnnn1-c1ccccc1OCC(=O)N[C@H](CCCCN)C(=O)N[C@H](CCCNC(=N)N)Cn1cc(Cc2ccccc2)nn1.Cl.Cl [Compound 39] | 32 | > 32 | 16 | 64 | > 32 | > 32 | 64 | >32 | > 32 | 32 | 128 | 32 | 16 | > 32 | 32 | 16 | > 32 | – | – |
| CC(C)CCc1cn(-c2c(OCC(=O)N[C@H](CCCCN)C(=O)N[C@H](CCCNC(=N)N)Cn3cc(CC4CCCCC4)nn3)ccc3ccccc23)nn1 [Compound 41] | 4 (≈ 5.28 µM) | 32 (≈ 42.3 µM) | 16 (≈ 21.1 µM) | 8 (≈ 10.6 µM) | 16 (≈ 21.1 µM) | 16 (≈ 21.1 µM) | 16 (≈ 21.1 µM) | 32 | 32 | 8 (≈ 10.6 µM) | 128 (≈ 169 µM) | 8 (≈ 10.6 µM) | 4 to 8 (≈ 5.28 to 10.6 µM) | 32 (≈ 42.3 µM) | 16 (≈ 21.1 µM) | 32 (≈ 42.3 µM) | 32 (≈ 42.3 µM) | 4 (≈ 5.28 µM) | MIC (S. aureus ATCC 43300; Table 2): 4 µg/mL (≈ 5.28 µM); MIC (S. aureus NCTC 10442; MRSA / NCTC 10442 / NCTC 104422, Table 2, read-out: MIC S. aureus NCTC 104422): 8 µg/mL (≈ 10.6 µM); HC50 (human erythrocytes; Table 2, footnote says lysis of sheep erythrocytes): 32 µg/mL |
| CC(C)CCc1cnnn1-c1c(OCC(=O)N[C@H](CCCCN)C(=O)N[C@H](CCCNC(=N)N)Cn2cc(C3CCCCC3)nn2)ccc2ccccc12.Cl.Cl [Compound 43] | 8 | 32 | 4 | 16 | 32 | > 32 | 128 | >32 | > 32 | 16 | 64 | 64 | 4 to 8 | > 32 | 128 | > 32 | 32 | 8 | – |
| CC(C)CCc1cnnn1-c1c(OCC(=O)N[C@H](CCCCN)C(=O)N[C@H](CCCNC(=N)N)Cn2cc(CC3CCCCC3)nn2)ccc2ccccc12 [Compound 44] | 8 (≈ 10.6 µM) | 32 (≈ 42.3 µM) | 4 (≈ 5.28 µM) | 4 (≈ 5.28 µM) | 32 (≈ 42.3 µM) | > 32 | 32 (≈ 42.3 µM) | >32 | > 32 | 8 (≈ 10.6 µM) | 64 (≈ 84.5 µM) | 16 (≈ 21.1 µM) | 4 to 8 (≈ 5.28 to 10.6 µM) | > 32 | 32 (≈ 42.3 µM) | 32 (≈ 42.3 µM) | 32 (≈ 42.3 µM) | 8 (≈ 10.6 µM) | – |
| CC(C)CCOc1ccccc1-n1nncc1COCC(=O)N[C@H](CCCCN)C(=O)N[C@H](CCCNC(=N)N)Cn1cc(C2CCCCC2)nn1 [Compound 48] | > 32 | > 32 | > 32 | > 32 | > 32 | > 32 | > 32 | 24.5 | 24.5 | > 32 | > 32 | > 32 | > 32 | > 32 | > 32 | > 32 | > 32 | – | – |
